Entries after “also recorded” stand apart in the source; their conditions may differ.
Molecular target: T1, NRASQ61H interaction with PI3K, CRAF, RALGDS (Homo sapiens, UniProt P01111, Q61H)
T1 construct: expressed in transfected cells; host or cells: HEK293T
Assay: BRET2 cell assay, NRAS Q61H-effector interaction
Assay type: cell-based
Conditions: HEK293T cells, 5, 10 and 20 μM, 20 h
Excerpt: The BRET ratio corresponds to the light emitted by the GFP2 acceptor constructs (515 nm±30) upon addition of Coelenterazine 400a divided by the light emitted by the RLuc8 donor constructs (410 nm±80). The normalized BRET ratio is the BRET ratio normalized to the DMSO negative and calculated as follows: (BRETcompound/BRETDMSO)×100, where BRETcompound corresponds to the BRET ratio for the compound-treated cells, BRETDMSO to the DMSO-treated cells. Each experiment was repeated at least three times. Statistical analyses were performed using a one-way ANOVA followed by Dunnett's post-tests (*P<0.05, **P<0.01, ***P<0.001, ****P<0.0001). Where error bars are presented, they correspond to mean values±SD of biological repeats (a-c).
HEK293T cells were transfected 24 hr with plasmids expressing the NRAS Q61H […] and HRAS G12V (B, D) biosensors together with the indicated RBDs of PI3K, CRAF and RALGDS (A, B) or full-length CRAF. […]
650,000 HEK293T were seeded in each well of a 6 well plate. […] The final concentrations in the cells were 0, 5, 10 and 20 µM (therefore the intermediate 10× concentrations were 0, 50, 100 and 200 μM. 10 μL of 10× compounds were added in each well of the 96 well plate to 0, 5, 10 and 20 µM final concentrations (with final 0.2% DMSO each). Quadruplicates were performed for each point. Cells were left for an additional 20 hours at 37° C. before the BRET2 signal reading directly after addition of Coelenterazine 400a substrate (10 µM final) to cells (Cayman Chemicals, cat #16157). BRET2 reading was carried out on an Envision instrument (2103 Multilabel Reader, PerkinElmer) with the BRET2 Dual Emission optical module (515 nm±30 and 410 nm±80; PerkinElmer).
The ability of Example compound 56 to inhibit RAS-effector PPI using the above cell-based RAS-effector BRET2 assay was investigated. […] We determined the effect of compound 56 (labelled Abd-7) on the interaction of KRAS^G12D and with PI3Kα and PI3Kγ, CRAF RAS-binding domain (RBD) and RALGDS RAS-associating domain (RA) compared with the low affinity Reference Compound Abd-2 FIG. 1a). […]

COc1nc(-c2cccc3c2OCCO3)ccc1Nc1ccc(CN(C)C)cc1 [compound 56, [6-(2,3-Dihydro-benzo[1,4]dioxin-5-yl)-2-methoxy-pyridin-3-yl]-(4-dimethylaminomethyl-phenyl)-amine]
Effect on BRET signal, NRAS Q61H/effector interactions: interferes with all mutant RAS family member PPIs

COc1cc(-c2cccc3c2OCCO3)ccc1Nc1cccc(CN(C)C)c1.O=CO [compound 72, [4-(2,3-Dihydro-benzo[1,4]dioxin-5-yl)-2-methoxy-phenyl]-(3-dimethylaminomethyl-phenyl)-amine formate salt]
Effect on BRET signal, NRAS Q61H/effector interactions (formate salt): inhibits; also recorded: disturbs the BRET2 signal in dose response manner

Source: patent publication US12024506B2, “Compounds” (Oxford University Innovation Limited, priority 2018, dated 2024)
